Data on nine molecules can be found in US10538555B2, “Macrocyclic inhibitors of the PD-1/PD-L1 and CD80(B7-1)/PD-L1 protein/protein interactions” (BRISTOL-MYERS SQUIBB COMPANY, priority 2014, dated 2020).

Where a SMILES comes first, the peptide text is derived from it. Bridges are numbered along the chain shown (N, C = ends). [ ]: non-standard residue; d: D form. ξ: configuration not given here. Trp(1-CH2COOH) = N[C@@H](Cc1cn(CC(=O)O)c2ccccc12)C(=O)O; Phe(3,4,5-F3) = N[C@@H](Cc1cc(F)c(F)c(F)c1)C(=O)O; NMePhe(4-F) = CN[C@@H](Cc1ccc(F)cc1)C(=O)O; Morpholine(3S-CO) = O=C(O)[C@@H]1COCCN1; Hyp = O=C(O)[C@@H]1C[C@@H](O)CN1; NMeF = CN[C@@H](Cc1ccccc1)C(=O)O; dHyp = O=C(O)[C@H]1C[C@H](O)CN1; NMeNle = CCCC[C@H](NC)C(=O)O; dPip = O=C(O)[C@H]1CCCCN1; NMeA = CN[C@@H](C)C(=O)O; dThz = O=C(O)[C@H]1CSCN1; Dab = NCC[C@H](N)C(=O)O; Dap = NC[C@H](N)C(=O)O; ξP = O=C(O)C1CCCN1

This test has as its target T1, Human PD-L1/PD-1 (Homo sapiens, UniProt Q9NZQ7).
T1 construct: TVMV protease cleavage site (C); made in house; host or cells: HEK293T cells
The test is described as follows: HTRF Human PD-L1/PD-1 binding assay (PD-1-Ig/PD-L1-His). Particulars: PD-L1-His 10 nM, PD-1-Ig 20 nM; class symbol; read-out: HTRF Human PD-L1/PD-1 Binding Assay IC50 Range. In outline: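 HTRF read-out (665/620 nm ratio) after 30 min equilibration with Eu-cryptate anti-Ig mAb (1 nM) and APC anti-His mAb (20 nM). Peptides preincubated 15 min with PD-L1-His (10 nM), then PD-1-Ig (20 nM) added for 15 min.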

T1 sequence (Q9NZQ7 with tags, fused parts or gaps): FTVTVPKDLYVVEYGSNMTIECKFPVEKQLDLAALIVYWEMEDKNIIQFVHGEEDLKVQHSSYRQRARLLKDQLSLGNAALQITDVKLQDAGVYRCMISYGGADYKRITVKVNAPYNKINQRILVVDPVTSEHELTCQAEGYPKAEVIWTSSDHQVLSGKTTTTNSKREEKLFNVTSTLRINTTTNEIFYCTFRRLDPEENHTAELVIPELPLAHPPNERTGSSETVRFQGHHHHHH

As to `CCCC[C@H]1C(=O)N(C)[C@@H](CCCC)C(=O)N[C@@H](C)C(=O)N[C@H](C(=O)NCC(N)=O)CSCC(=O)N[C@@H](Cc2ccc(O)cc2)C(=O)N2CCNC[C@H]2C(=O)N[C@@H](CC(N)=O)C(=O)N2CCC[C@H]2C(=O)N[C@@H](Cc2c[nH]cn2)C(=O)N[C@@H](CC(C)C)C(=O)N2C[C@H](O)C[C@H]2C(=O)N[C@@H](Cc2c[nH]c3ccccc23)C(=O)N[C@@H](CO)C(=O)N[C@@H](Cc2c[nH]c3ccccc23)C(=O)N1C` [Example 1529], the IC50 was in the range of 0.001 to 0.0099 µM.

As for `CCCC[C@H]1C(=O)N(C)[C@@H](CCCC)C(=O)N[C@@H](CC(C)C)C(=O)N[C@H](C(=O)NCC(N)=O)CSCC(=O)N[C@@H](Cc2ccc(O)cc2)C(=O)N(C)[C@@H](C)C(=O)N[C@@H](CC(=O)O)C(=O)N2CCC[C@H]2C(=O)N[C@@H](Cc2cnc[nH]2)C(=O)N[C@@H](CCC(N)=O)C(=O)N2C[C@H](O)C[C@H]2C(=O)N[C@@H](Cc2c[nH]c3ccccc23)C(=O)N[C@@H](CCN)C(=O)N[C@@H](Cc2cn(CC(=O)O)c3ccccc23)C(=O)N1C` [Example 6416] ({CH2CO}-Y[NMeA]DPHQ[Hyp]W[Dab][Trp(1-CH2COOH)][NMeNle][NMeNle]LCG-NH2; thioether N-14), the IC50 fell in the range of 0.01 to 0.0999 µM.

For `CCCC[C@H]1C(=O)N2CSC[C@@H]2C(=O)N[C@@H](CC(=O)O)C(=O)N[C@@H](C)C(=O)N(C)[C@@H](Cc2ccccc2)C(=O)N[C@@H](Cc2ccc(O)cc2)C(=O)N2CSC[C@@H]2C(=O)N[C@@H](Cc2c[nH]c3ccccc23)C(=O)N[C@@H](Cc2ccc(O)cc2)C(=O)N[C@@H](CC(C)C)C(=O)N[C@H](C(=O)NCC(N)=O)CSCC(=O)N[C@@H](Cc2ccccc2)C(=O)N(C)[C@@H](Cc2ccccc2)C(=O)N1C` [Example 10078] ({CH2CO}-F[NMeF][NMeNle][dThz]DA[NMeF]Y[dThz]WYLCG-NH2; thioether N-13), the IC50 was 0.01 to 0.0999 µM.

For `CCCC[C@H]1C(=O)N(C)[C@@H](CCCC)C(=O)N[C@@H](C)C(=O)N[C@H](C(=O)NCC(N)=O)CSCC(=O)N[C@@H](Cc2ccc(O)cc2)C(=O)N(C)[C@@H](C)C(=O)N[C@@H](CC(N)=O)C(=O)N2CCOC[C@H]2C(=O)N[C@@H](Cc2cnc[nH]2)C(=O)N[C@@H](CCC(N)=O)C(=O)N2C[C@H](O)C[C@H]2C(=O)N[C@@H](Cc2c[nH]c3ccccc23)C(=O)N[C@@H](CO)C(=O)N[C@@H](Cc2c[nH]c3ccccc23)C(=O)N1C` [Example 1280] ({CH2CO}-Y[NMeA]N[Morpholine(3S-CO)]HQ[Hyp]WSW[NMeNle][NMeNle]ACG-NH2; thioether N-14), the IC50 was in the range of 0.01 to 0.0999 µM.

With `CCCC[C@H]1C(=O)N(C)[C@@H](CCCC)C(=O)N[C@@H](CCC(=O)O)C(=O)N[C@H](C(=O)NCC(N)=O)CSCC(=O)N[C@@H](Cc2ccc(O)cc2)C(=O)N(C)[C@@H](C)C(=O)N[C@@H](CC(N)=O)C(=O)N2CCCC2C(=O)N[C@@H](Cc2cnc[nH]2)C(=O)N[C@@H](CCC(N)=O)C(=O)N2C[C@H](O)C[C@H]2C(=O)N[C@@H](Cc2c[nH]c3ccccc23)C(=O)N[C@@H](CCN)C(=O)N[C@@H](Cc2cn(CC(=O)O)c3ccccc23)C(=O)N1C` (stereo partly drawn) [Example 6288] ({CH2CO}-Y[NMeA]N[ξP]HQ[Hyp]W[Dab][Trp(1-CH2COOH)][NMeNle][NMeNle]ECG-NH2; thioether N-14), the IC50 lay in the range of 0.001 to 0.0099 µM.

Regarding `CCCC[C@H]1C(=O)N2C[C@@H](O)C[C@@H]2C(=O)N[C@@H](CC(=O)O)C(=O)N[C@@H](C)C(=O)N(C)[C@@H](Cc2ccccc2)C(=O)N[C@@H](Cc2ccc(O)cc2)C(=O)N2C[C@@H](O)C[C@@H]2C(=O)N[C@@H](Cc2c[nH]c3ccccc23)C(=O)N[C@@H](Cc2ccc(O)cc2)C(=O)N[C@@H](CC(C)C)C(=O)N[C@H](C(=O)NCC(N)=O)CSCC(=O)N[C@@H](Cc2ccccc2)C(=O)N(C)[C@@H](Cc2ccccc2)C(=O)N1C` [Example 10079] ({CH2CO}-F[NMeF][NMeNle][dHyp]DA[NMeF]Y[dHyp]WYLCG-NH2; thioether N-13), the IC50 is 0.01 to 0.0999 µM.

As to `CCCC[C@H]1C(=O)N(C)[C@@H](CCCC)C(=O)N[C@@H](CCC(=O)O)C(=O)N[C@H](C(=O)NCC(N)=O)CSCC(=O)N[C@@H](Cc2ccc(O)cc2)C(=O)N(C)[C@@H](C)C(=O)N[C@@H](CC(=O)O)C(=O)N2CCC[C@H]2C(=O)N[C@@H](CN)C(=O)N[C@@H](CCC(N)=O)C(=O)N2C[C@H](O)C[C@H]2C(=O)N[C@@H](Cc2c[nH]c3ccccc23)C(=O)N[C@@H](CCN)C(=O)N[C@@H](Cc2cn(CC(=O)O)c3ccccc23)C(=O)N1C` [Example 6189] ({CH2CO}-Y[NMeA]DP[Dap]Q[Hyp]W[Dab][Trp(1-CH2COOH)][NMeNle][NMeNle]ECG-NH2; thioether N-14), the IC50 lay in the range of 0.001 to 0.0099 µM.

For the molecule `CC(C)C[C@@H]1NC(=O)[C@H](Cc2ccc(O)cc2)NC(=O)[C@H](Cc2c[nH]c3ccccc23)NC(=O)[C@H]2CCCCN2C(=O)[C@H](CCC(=O)O)NC(=O)[C@H](Cc2ccccc2)N(C)C(=O)[C@H](C(C)C)NC(=O)[C@H](CC(=O)O)NC(=O)[C@H]2CCCN2C(=O)[C@H](Cc2ccccc2)N(C)C(=O)[C@H](Cc2ccc(F)cc2)N(C)C(=O)[C@H](Cc2cc(F)c(F)c(F)c2)NC(=O)CSC[C@@H](C(=O)NCC(N)=O)NC1=O` [Example 10614] ({CH2CO}-[Phe(3,4,5-F3)][NMePhe(4-F)][NMeF][dP]DV[NMeF]E[dPip]WYLCG-NH2; thioether N-13), the IC50 fell in the range of 0.01 to 0.0999 µM.

As for `CCCC[C@H]1C(=O)N2C[C@@H](O)C[C@@H]2C(=O)N[C@@H](CC(=O)O)C(=O)N[C@@H](C(C)C)C(=O)N(C)[C@@H](Cc2ccccc2)C(=O)N[C@@H](CCC(=O)O)C(=O)N2CCCC[C@@H]2C(=O)N[C@@H](Cc2c[nH]c3ccccc23)C(=O)N[C@@H](Cc2ccc(O)cc2)C(=O)N[C@@H](CCCCN)C(=O)N[C@H](C(=O)NCC(N)=O)CSCC(=O)N[C@@H](Cc2cc(F)c(F)c(F)c2)C(=O)N(C)[C@@H](Cc2ccc(F)cc2)C(=O)N1C` [Example 10560] ({CH2CO}-[Phe(3,4,5-F3)][NMePhe(4-F)][NMeNle][dHyp]DV[NMeF]E[dPip]WYKCG-NH2; thioether N-13), the IC50 fell in the range of 0.001 to 0.0099 µM.
